Test results as given in patent publication US11746116B2, “Antibiotic resistance breakers” (KING'S COLLEGE LONDON, priority 2017, dated 2023).
Converted amounts (≈) assume the structure as drawn. Read-outs that look alike come from different tables or passages of the source.

Experiments:
[1] = biological target: Safetyscreen44 off target panel (Homo sapiens, UniProt P04150)
[2] = biological target: Safetyscreen44 off target panel (Homo sapiens, UniProt P23975)
[3] = biological target: Safetyscreen44 off target panel (Homo sapiens, UniProt P35367)
[4] = biological target: Safetyscreen44 off target panel (Homo sapiens, UniProt P43681)
[5] = biological target: Safetyscreen44 off target panel (Homo sapiens, UniProt P32238)
[6] = biological target: Safetyscreen44 off target panel (Homo sapiens, UniProt P29274)
[7] = biological target: Safetyscreen44 off target panel (Homo sapiens, UniProt P08908)
[8] = biological target: Safetyscreen44 off target panel (Homo sapiens, UniProt P46098)
[9] = biological target: Safetyscreen44 off target panel (Homo sapiens, UniProt P07550)
[10] = biological target: Safetyscreen44 off target panel (Homo sapiens, UniProt P37288)
[11] = biological target: Safetyscreen44 off target panel (Homo sapiens, UniProt P34972)
[12] = biological target: Safetyscreen44 off target panel (Homo sapiens, UniProt Q01959)
[13] = biological target: Safetyscreen44 off target panel (Homo sapiens, UniProt P22303)
[14] = biological target: Safetyscreen44 off target panel (Homo sapiens, UniProt P41143)
[15] = biological target: Safetyscreen44 off target panel (Homo sapiens, UniProt P35354)
[16] = biological target: Safetyscreen44 off target panel (Homo sapiens, UniProt P25021)
[17] = biological target: Safetyscreen44 off target panel (Homo sapiens, UniProt P08172)
[18] = biological target: Safetyscreen44 off target panel (Homo sapiens, UniProt P25101)
[19] = biological target: Safetyscreen44 off target panel (Homo sapiens, UniProt P10275)
[20] = biological target: Safetyscreen44 off target panel (Rattus norvegicus, UniProt P21396)
[21] = test system: Neisseria gonorrhoeae strains

Safetyscreen44 off target panel (Homo sapiens, UniProt P35354), sequence (P35354 18-604): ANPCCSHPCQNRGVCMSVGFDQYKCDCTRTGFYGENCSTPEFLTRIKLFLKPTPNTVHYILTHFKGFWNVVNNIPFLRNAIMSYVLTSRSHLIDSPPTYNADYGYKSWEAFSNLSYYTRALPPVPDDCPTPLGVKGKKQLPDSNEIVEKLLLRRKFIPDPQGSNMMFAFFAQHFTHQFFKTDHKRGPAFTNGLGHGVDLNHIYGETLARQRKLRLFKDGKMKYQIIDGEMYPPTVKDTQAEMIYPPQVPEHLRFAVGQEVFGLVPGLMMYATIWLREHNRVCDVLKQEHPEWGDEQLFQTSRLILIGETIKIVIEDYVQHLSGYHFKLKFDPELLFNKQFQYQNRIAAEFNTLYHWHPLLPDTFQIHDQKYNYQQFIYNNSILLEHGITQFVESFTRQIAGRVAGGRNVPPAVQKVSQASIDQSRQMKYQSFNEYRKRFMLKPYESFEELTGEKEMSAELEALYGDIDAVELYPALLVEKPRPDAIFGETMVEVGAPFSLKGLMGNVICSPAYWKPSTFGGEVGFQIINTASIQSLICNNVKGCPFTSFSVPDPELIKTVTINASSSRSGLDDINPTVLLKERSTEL
Safetyscreen44 off target panel (Homo sapiens, UniProt P34972), sequence (P34972 whole entry): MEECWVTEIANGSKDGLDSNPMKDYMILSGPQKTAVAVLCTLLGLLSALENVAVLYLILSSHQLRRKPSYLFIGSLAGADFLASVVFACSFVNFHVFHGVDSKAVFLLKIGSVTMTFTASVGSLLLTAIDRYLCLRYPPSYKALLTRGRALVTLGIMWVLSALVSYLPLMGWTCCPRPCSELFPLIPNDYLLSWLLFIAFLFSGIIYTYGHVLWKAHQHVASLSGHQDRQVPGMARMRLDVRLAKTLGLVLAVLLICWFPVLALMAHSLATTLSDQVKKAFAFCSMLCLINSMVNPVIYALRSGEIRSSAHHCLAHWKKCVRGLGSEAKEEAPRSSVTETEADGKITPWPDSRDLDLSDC
Safetyscreen44 off target panel (Homo sapiens, UniProt P37288), sequence (P37288 whole entry): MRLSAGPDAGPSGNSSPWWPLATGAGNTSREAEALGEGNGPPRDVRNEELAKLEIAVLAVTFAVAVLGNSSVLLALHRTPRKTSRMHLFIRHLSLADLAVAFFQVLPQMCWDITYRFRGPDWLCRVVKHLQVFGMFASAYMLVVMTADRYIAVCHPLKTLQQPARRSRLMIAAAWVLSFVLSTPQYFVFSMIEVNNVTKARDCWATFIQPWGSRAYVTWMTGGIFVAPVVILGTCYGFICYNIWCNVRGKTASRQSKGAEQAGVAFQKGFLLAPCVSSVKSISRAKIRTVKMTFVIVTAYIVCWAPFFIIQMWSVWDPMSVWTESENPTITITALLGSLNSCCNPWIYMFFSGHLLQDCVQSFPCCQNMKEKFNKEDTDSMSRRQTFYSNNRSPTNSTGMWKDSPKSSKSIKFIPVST
Safetyscreen44 off target panel (Rattus norvegicus, UniProt P21396), sequence (P21396 whole entry): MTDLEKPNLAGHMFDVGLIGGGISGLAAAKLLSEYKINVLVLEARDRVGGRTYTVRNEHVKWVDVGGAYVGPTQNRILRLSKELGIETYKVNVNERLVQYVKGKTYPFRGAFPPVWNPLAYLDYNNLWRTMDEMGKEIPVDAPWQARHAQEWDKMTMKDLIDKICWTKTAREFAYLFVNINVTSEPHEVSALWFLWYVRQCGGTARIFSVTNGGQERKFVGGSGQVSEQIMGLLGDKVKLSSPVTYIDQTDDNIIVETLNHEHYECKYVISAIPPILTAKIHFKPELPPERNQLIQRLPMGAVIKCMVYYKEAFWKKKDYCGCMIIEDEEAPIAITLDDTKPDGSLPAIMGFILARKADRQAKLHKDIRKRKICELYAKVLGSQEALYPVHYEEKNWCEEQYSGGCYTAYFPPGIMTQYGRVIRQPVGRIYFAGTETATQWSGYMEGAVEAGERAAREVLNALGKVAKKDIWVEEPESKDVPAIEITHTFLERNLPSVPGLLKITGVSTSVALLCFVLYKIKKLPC
Safetyscreen44 off target panel (Homo sapiens, UniProt Q01959), sequence (Q01959 whole entry): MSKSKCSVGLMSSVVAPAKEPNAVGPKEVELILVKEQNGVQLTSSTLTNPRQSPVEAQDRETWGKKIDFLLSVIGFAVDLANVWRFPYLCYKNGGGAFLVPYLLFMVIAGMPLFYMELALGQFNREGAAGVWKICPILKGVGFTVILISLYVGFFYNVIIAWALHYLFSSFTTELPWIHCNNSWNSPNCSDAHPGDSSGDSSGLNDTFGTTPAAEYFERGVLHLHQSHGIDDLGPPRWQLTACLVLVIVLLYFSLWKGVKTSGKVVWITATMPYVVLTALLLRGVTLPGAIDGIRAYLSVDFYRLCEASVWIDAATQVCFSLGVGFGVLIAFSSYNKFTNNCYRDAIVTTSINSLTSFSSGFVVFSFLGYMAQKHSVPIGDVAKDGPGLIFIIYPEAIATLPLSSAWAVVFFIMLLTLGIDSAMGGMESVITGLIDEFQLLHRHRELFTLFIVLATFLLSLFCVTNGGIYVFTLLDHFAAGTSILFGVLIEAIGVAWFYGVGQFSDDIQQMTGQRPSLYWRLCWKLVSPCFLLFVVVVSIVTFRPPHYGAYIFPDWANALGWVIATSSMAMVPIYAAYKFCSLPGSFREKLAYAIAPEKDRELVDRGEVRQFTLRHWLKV
Safetyscreen44 off target panel (Homo sapiens, UniProt P10275), sequence (P10275 whole entry): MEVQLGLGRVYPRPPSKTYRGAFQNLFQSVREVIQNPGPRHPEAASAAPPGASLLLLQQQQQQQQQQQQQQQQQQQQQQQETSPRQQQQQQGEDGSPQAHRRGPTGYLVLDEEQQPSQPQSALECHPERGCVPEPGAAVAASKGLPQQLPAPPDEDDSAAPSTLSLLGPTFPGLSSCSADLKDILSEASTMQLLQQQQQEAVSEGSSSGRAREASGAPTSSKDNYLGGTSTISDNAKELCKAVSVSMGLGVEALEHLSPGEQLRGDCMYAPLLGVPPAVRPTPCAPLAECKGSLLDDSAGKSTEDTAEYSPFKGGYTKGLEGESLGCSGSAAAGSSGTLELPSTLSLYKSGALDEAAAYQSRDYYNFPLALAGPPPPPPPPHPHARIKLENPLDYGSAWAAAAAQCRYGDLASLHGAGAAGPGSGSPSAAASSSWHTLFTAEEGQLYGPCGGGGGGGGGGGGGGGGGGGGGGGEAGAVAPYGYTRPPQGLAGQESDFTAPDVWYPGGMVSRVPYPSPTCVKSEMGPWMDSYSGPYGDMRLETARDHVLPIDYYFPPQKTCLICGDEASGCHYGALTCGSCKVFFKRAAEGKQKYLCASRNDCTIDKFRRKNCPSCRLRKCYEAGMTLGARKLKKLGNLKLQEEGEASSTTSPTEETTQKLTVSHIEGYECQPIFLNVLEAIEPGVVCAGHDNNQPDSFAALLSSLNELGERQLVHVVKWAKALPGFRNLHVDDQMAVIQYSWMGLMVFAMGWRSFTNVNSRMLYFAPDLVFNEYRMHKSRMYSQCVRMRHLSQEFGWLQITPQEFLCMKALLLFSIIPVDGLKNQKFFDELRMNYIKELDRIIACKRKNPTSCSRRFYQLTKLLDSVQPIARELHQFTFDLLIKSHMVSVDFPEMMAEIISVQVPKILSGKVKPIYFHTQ
Safetyscreen44 off target panel (Homo sapiens, UniProt P46098), sequence (P46098 24-478): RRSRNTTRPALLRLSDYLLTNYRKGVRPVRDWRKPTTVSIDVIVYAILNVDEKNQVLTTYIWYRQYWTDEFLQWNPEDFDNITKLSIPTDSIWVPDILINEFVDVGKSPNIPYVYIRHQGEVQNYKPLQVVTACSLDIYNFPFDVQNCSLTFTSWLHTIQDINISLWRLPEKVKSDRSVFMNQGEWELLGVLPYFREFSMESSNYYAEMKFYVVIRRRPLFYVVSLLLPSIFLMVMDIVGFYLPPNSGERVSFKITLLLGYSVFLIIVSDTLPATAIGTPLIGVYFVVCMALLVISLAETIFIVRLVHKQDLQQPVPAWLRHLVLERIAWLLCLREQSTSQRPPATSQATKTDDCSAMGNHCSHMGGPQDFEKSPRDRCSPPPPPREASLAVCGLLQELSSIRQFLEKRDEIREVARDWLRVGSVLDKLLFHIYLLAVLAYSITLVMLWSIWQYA
Safetyscreen44 off target panel (Homo sapiens, UniProt P22303), sequence (P22303 32-614): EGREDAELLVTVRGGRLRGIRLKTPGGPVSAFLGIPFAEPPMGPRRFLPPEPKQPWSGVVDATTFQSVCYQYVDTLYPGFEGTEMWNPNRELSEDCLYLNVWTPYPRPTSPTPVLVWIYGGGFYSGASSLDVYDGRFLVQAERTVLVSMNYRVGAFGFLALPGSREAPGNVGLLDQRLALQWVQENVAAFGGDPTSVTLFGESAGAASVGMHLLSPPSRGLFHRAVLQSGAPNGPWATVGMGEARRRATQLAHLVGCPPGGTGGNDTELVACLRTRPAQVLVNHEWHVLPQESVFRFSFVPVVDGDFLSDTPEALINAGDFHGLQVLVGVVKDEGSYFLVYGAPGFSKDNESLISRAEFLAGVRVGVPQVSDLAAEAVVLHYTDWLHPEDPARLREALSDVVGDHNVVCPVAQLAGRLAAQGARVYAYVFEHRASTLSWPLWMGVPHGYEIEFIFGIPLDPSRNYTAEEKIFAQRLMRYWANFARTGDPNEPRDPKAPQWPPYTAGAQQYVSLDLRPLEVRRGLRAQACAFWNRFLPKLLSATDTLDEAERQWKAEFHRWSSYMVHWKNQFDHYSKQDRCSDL
Safetyscreen44 off target panel (Homo sapiens, UniProt P25101), sequence (P25101 21-427): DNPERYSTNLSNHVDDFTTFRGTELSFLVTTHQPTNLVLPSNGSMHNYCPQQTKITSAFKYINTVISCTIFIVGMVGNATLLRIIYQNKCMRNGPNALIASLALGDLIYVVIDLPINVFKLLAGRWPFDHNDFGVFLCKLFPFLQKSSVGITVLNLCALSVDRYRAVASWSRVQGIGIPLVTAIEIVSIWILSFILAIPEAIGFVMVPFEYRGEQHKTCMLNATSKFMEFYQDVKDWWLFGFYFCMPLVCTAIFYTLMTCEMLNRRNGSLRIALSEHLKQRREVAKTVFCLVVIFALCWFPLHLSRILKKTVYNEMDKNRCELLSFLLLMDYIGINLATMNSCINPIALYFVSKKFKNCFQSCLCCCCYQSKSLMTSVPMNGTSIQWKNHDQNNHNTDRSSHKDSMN

For `C[C@H]1COc2c(N3CC[C@@H](Nc4ncccn4)C3)c(F)cc3c(=O)c(C(=O)O)cn1c23` [KSN-82-L22], the “% inhibition, GR (h) (agonist radioligand)” value [1] was 3.456%, the “% inhibition, norepinephrine transporter (h) (antagonist radioligand)” value [2] was −6.471% and the “% inhibition, H1 (h) (antagonist radioligand)” value [3] was 5.564%. For the same compound, the “% inhibition, N neuronal alpha 4beta 2 (h) (agonist radioligand)” value [4] was −41.8108%, the “% inhibition, CCK1 (CCKA) (h) (agonist radioligand)” value [5] was −2.038% and the “% inhibition, A2A (h) (agonist radioligand)” value [6] was 53.628%. The “% inhibition, 5-HT1A(h) (agonist radioligand)” value [7] was −3.77%, the “% inhibition, 5-HT3 (h) (antagonist radioligand)” value [8] was −4.708% and the “% inhibition, beta 2 (h) (antagonist radioligand)” value [9] was 11.3086%. For the same compound, the “% inhibition, V1a (h) (agonist radioligand)” value [10] was −12.5662%, the “% inhibition, CB2 (h) (agonist radioligand)” value [11] was 0% and the “% inhibition, dopamine transporter (h) (antagonist radioligand)” value [12] was 10.0257%. For the same compound, the “% inhibition, acetylcholinesterase (h)” value [13] was 32.9861%, the “% inhibition, delta (DOP) (h) (agonist radioligand)” value [14] was 2.159% and the “% inhibition, COX2(h)” value [15] was 8.111%. The “% inhibition, H2 (h) (antagonist radioligand)” value [16] was −40.1709%, the “% inhibition, M2 (h) (antagonist radioligand)” value [17] was 1.066% and the “% inhibition, ETA (h) (agonist radioligand)” value [18] was −5.236%. For the same compound, the “% inhibition, AR (h) (agonist radioligand)” value [19] was 4.241%, the “% inhibition, MAO-A (antagonist radioligand)” value [20] was −9.13% and the MIC ([21]; ATCC49226, strain ATCC 49226, PEN-I TET-I) was under 0.0312 µg/mL. It also gave an MIC ([21]; ATCC700825, strain ATCC 700825) of 50 µg/mL (≈ 118 µM), an MIC ([21]; BAA1833, strain BAA-1833, PEN-I TET-I) of 50 µg/mL (≈ 118 µM) and an MIC ([21]; BAA1838, strain BAA-1838) of 50 µg/mL (≈ 118 µM). The MIC ([21]; CCUG57595, strain CCUG 57595) was 50 µg/mL (≈ 118 µM), the MIC ([21]; CCUG57596) was 0.125 µg/mL (≈ 0.294 µM) and the MIC ([21]; CCUG57597, strain CCUG 57597, FEP-NS FOX-I CAZ-NS CIP-R OFX-R PEN-R TET-R) was 2 µg/mL (≈ 4.7 µM). The MIC ([21]; CCUG57598, strain CCUG 57598, FOX-R CAZ-NS CRO-NS CIP-R OFX-R PEN-R TET-R) was 2 µg/mL (≈ 4.7 µM), the MIC ([21]; CCUG57599, strain CCUG 57599, CIP-R OFX-R PEN-R TET-R) was 0 to 5 µg/mL and the MIC ([21]; CCUG57600, strain CCUG 57600, CIP-R OFX-R PEN-R TET-R) was 1 µg/mL (≈ 2.35 µM). It also gave an MIC ([21]; CCUG57601, strain CCUG 57601, PEN-R TET-R) of under 0.0312 µg/mL, an MIC ([21]; CCUG57602, strain CCUG 57602, PEN-I TET-I) of 0.0625 µg/mL (≈ 0.147 µM) and an MIC ([21]; NCTC13817, strain NCTC 13817, PEN-R TET-I) of 0 to 5 µg/mL. It also gave an MIC ([21]; NCTC13818, strain NCTC 13818, CIP-R OFX-R PEN-R TET-R) of 2 µg/mL (≈ 4.7 µM), an MIC ([21]; NCTC13819, strain NCTC 13819, FEP-NS CAZ-NS CIP-R OFX-R PEN-R TET-I) of 2 µg/mL (≈ 4.7 µM) and an MIC ([21]; NCTC13820, strain NCTC 13820, FEP-NS CFM-NS CAZ-NS CRO-NS CIP-R OFX-R PEN-R TET-R) of 2 µg/mL (≈ 4.7 µM). The MIC ([21]; NCTC13821, strain NCTC 13821, FEP-NS CFM-NS CAZ-NS CRO-NS CIP-R PEN-I TET-I) was 2 µg/mL (≈ 4.7 µM), the MIC ([21]; NCTC13822, strain NCTC 13822, FEP-NS CFM-NS CAZ-NS CIP-R OFX-R PEN-R TET-I) was 2 µg/mL (≈ 4.7 µM) and the MIC ([21]; strain 2007NG046, PEN-R CFM-R CPD-R CIP-R) was 4 µg/mL (≈ 9.4 µM). It also gave an MIC ([21]; strain 2008NG057, PEN-R CFM-R CPD-R CIP-R) of 2 µg/mL (≈ 4.7 µM), an MIC ([21]; strain 2008NG097, PEN-R CFM-R CPD-R CIP-R) of 2 µg/mL (≈ 4.7 µM) and an MIC ([21]; strain 2009NG514, PEN-R CPD-R CIP-R) of 2 µg/mL (≈ 4.7 µM). The MIC ([21]; strain 2010NG122, PEN-R CFM-R CIP-R) was 2 µg/mL (≈ 4.7 µM), the MIC ([21]; strain FDA-CDC AR-BANK#0165, CIP-R PEN-I TET-R) was 2 µg/mL (≈ 4.7 µM) and the MIC ([21]; strain FDA-CDC AR-BANK#0166, CIP-R PEN-I TET-R) was 2 µg/mL (≈ 4.7 µM). The MIC ([21]; strain FDA-CDC AR-BANK#0167, CIP-S PEN-S TET-I) was under 0.0312 µg/mL, the MIC ([21]; strain FDA-CDC AR-BANK#0168, CIP-R PEN-I TET-R) was 1 µg/mL (≈ 2.35 µM) and the MIC ([21]; strain FDA-CDC AR-BANK#0169, CIP-R PEN-I TET-R) was 2 µg/mL (≈ 4.7 µM). The MIC ([21]; strain FDA-CDC AR-BANK#0170, CIP-R PEN-I TET-R) was 2 µg/mL (≈ 4.7 µM) and the MIC ([21]; strain FDA-CDC AR-BANK#0171, CIP-R PEN-I TET-R) was 1 µg/mL (≈ 2.35 µM).
